In article PMC5228037, “Discovery and Mechanistic Characterization of Selective Inhibitors of H2S-producing Enzyme: 3-Mercaptopyruvate Sulfurtransferase (3MST) Targeting Active-site Cysteine Persulfide” (Scientific Reports, 2017):

Molecular target: T1, 3MST in cell lysate of 3MST-overexpressing HEK293 cells (Mus musculus, UniProt Q99J99)
T1 construct: expressed in transfected cells; host or cells: HEK293 (transient, 3MST/pCI)
T1 sequence (Q99J99 1-297): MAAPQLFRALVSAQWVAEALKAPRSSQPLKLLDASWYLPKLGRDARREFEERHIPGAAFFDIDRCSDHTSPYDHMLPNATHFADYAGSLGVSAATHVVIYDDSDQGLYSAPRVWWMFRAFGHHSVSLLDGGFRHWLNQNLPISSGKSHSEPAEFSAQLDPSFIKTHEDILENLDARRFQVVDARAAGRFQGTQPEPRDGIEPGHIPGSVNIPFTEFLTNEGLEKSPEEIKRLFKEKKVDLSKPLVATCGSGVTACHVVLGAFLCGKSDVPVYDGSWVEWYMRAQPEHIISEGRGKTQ
Assay: Inhibitory activity in lysate of m3MST-overexpressing HEK293 cells by gas chromatography
Type: biochemical
Conditions: 10 μM compound, 100 μM 3MP, 100 μM DTT, 37 °C 15 min
Protocol: Figure 2 Selectivity assessment of hit compounds for 3MST over other H2S/polysulfides-producing enzymes and rhodanese. (a) 3MST-Inhibitory activity of hit compounds at 10 and 100 μM in cell lysate of 3MST-expressing HEK293 cells. 100 μM 3MP and 100 μM DTT were added to the solution containing 0.1% DMSO as a cosolvent, and the mixture was incubated at 37 °C for 15 min. H2S production was measured by gas chromatography. All data are presented as the mean ± S.D. (100 μM: n = 3 or 4; 10 μM: n = 3). (b) Selectivity assessment of hit compounds at 100 μM towards CBS and CSE. Only DMSO was added to the control sample instead of DMSO solution containing hit compounds. H2S production was monitored by gas chromatography. All data are presented as the mean (n = 3). (c) Detection method for rhodanese activity (Sörbo method). (d) Selectivity assessment of hit compounds towards rhodanese. The results are mean ± S.D. (n = 4, three times). These values were determined based upon the absorbance of [Fe(SCN)3] at 460 nm (Sӧrbo method). […] (e) Fluorescence confocal microscopic images of live COS7 cells transfected with 3MST or an empty vector[9] as a control. […] F/F0 was calculated by dividing the fluorescence intensity of cells after addition of 500 μM 3MP (10 min) by that of cells before addition of 500 μM 3MP (Pre), then the mean F/F0 was determined from 5 cells. […]

SMILES	inhibition at 10 µM
Cc1cc(=O)[nH]c(SCC(=O)c2cccc3ccccc23)n1 [compound 3]	80 to 90%
NC(=O)c1ccsc1NC(=O)CSc1nc2ccccc2c(=O)[nH]1 [compound 1]	80 to 90%
